SMILES strings stand for the structures.

The series is described as follows: gradient 5% acetonitrile 3 min, to 50% in 2 min, to 85% in 15 min, held 3 min, 100 µL/min. The conditions noted are these: column: Zorbax Extend-C18 2.1 x 50 mm; eluents: water / acetonitrile, 0.1% formic acid. In a few lines:
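A Zorbax Extend-C18 column (2.1 × 50 mm, 1.8 μm) run at 100 μL/min with water and acetonitrile, both containing 0.1% formic acid, separated mixtures of ~100 pure standards. The HPLC was coupled to a quadrupole time-of-flight mass spectrometer operated in positive and negative ionization mode, with dead and dwell volumes of 40 μL and 900 μL. Each retention time was taken from a computationally picked adduct peak that was then manually inspected.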
As for `O=C(NC1CC1)C1CCN(C(=O)c2ncn3c2COC(c2ccc(Cl)cc2)C3)CC1` (centres undefined), the RP-LC retention time is 713 s.

`CCCNC(=O)c1ncn2c1C(=O)N(C1CC1)C(C)(C(=O)NCc1cccc(C)c1)C2` (centres undefined) yielded an RP-LC retention time of 717 s.

Take `Cc1nn(-c2nc(CC(=O)N3CCCCC3)cs2)c(C)c1Cl`: the RP-LC retention time came to 1050 s.

For `O=C(c1ccsc1)N1CCc2cc(-c3csc(C4CC4)n3)ccc21`, the RP-LC retention time was determined as 1120 s.

Take `CN1C(=O)c2cccn2CC1C(=O)NCc1cccs1` (centres undefined): the RP-LC retention time is 654 s.

`O=C(CSc1ncc(CO)n1Cc1ccccc1)N1CCCc2ccccc21`: the RP-LC retention time is 684 s.

Consider `Cc1cccc(NC(=O)NCC(c2cccnc2)c2c[nH]c3ccccc23)c1C` (centres undefined), for which the RP-LC retention time was 661 s.

`COc1ccc(-c2nnc(CC(=O)NCC(C)C)o2)cc1` returned an RP-LC retention time of 705 s.

The compound `Cn1c(=O)n(C)c2cc(CNC(C)(C)CC(C)(C)C)ccc21` returned an RP-LC retention time of 624 s.

With `O=C(COc1ccccc1)Nc1nc(-c2ccc(F)cc2)cs1`, the RP-LC retention time came to 1050 s.

Regarding `O=C(Cn1cnc2nc(N3CCC(C(=O)NC4CC4)CC3)sc2c1=O)Nc1ccc2c(c1)CCC2`, the RP-LC retention time amounted to 670 s.

`O=C(CN1CCN(Cc2ccccc2)C1=O)N1CCN(c2ccccc2)CC1` came in with an RP-LC retention time of 788 s.

In the case of `CCc1cccc(NC(=O)C2CCN(S(=O)(=O)c3cc(-c4noc(C5CC5)n4)cs3)CC2)c1`, the RP-LC retention time was determined as 1110 s.

Compound `Cc1noc(C)c1CNC(=O)c1cccc(OC(F)(F)F)c1` came in with an RP-LC retention time of 864 s.

Take `Cc1cc(=O)n(CC(=O)NCc2ccccc2Br)c(N2CCc3ccccc3C2)n1`: the RP-LC retention time is 818 s.

In the case of `CCCS(=O)(=O)N1CCC2(CC1)CN(c1cccc(F)c1)C2c1ccccc1` (centres undefined), the RP-LC retention time stood at 1290 s.

As for `O=C([C@@H]1C[C@H](F)CN1C(=O)NCc1ccc(F)cc1)N1CCc2ccccc2C1`, the RP-LC retention time is 747 s.

Compound `COc1cccc(-c2noc(Cn3ccn(-c4c(C)cccc4C)c(=O)c3=O)n2)c1` gave an RP-LC retention time of 872 s.

As to `O=C(CN1C(=O)CCc2cc(Br)ccc21)NCCN1CCc2ccccc2C1`, the RP-LC retention time was found to be 662 s.

`CC(C)NS(=O)(=O)c1ccc(Cl)c(-c2nnc(-c3ccccc3)o2)c1`: the RP-LC retention time came out at 977 s.

For the compound `CCOc1ccccc1-c1noc(Cn2c(=O)n(Cc3ccc(OC)cc3)c(=O)c3sccc32)n1`, the RP-LC retention time came out at 1080 s.

As to `Cc1ccc(S(=O)(=O)c2cnc(N3CCC(C(N)=O)(N4CCCCC4)CC3)nc2N)cc1`, the RP-LC retention time is 613 s.

In the case of `COc1cccc(-n2c(N3CCCC(C(=O)Nc4ccc(F)c(F)c4)C3)nc3ccsc3c2=O)c1` (centres undefined), the RP-LC retention time is 993 s.

In the case of `CC(C)c1ccc(NC(=O)C2CCN(S(C)(=O)=O)c3cc(Cl)ccc3O2)cc1` (centres undefined), the RP-LC retention time is 1110 s.

Turning to `CC(C)NC(=O)c1ccc(OCC2CCN(C(=O)C3(c4ccccc4)CC3)CC2)cc1`, the RP-LC retention time came to 897 s.

The compound `Cc1cc(NC(=O)C2CCN(S(C)(=O)=O)c3ccccc3O2)ccc1Br` (centres undefined) registered an RP-LC retention time of 1040 s.

Take `O=C(Nc1cccc(-c2cn3cccnc3n2)c1)c1ccccc1F`: the RP-LC retention time was found to be 664 s.

`Cc1ccc(C)c(S(=O)(=O)N2CCC3(CC2)NCCN=C3NCc2ccccc2F)c1` came in with an RP-LC retention time of 757 s.

Regarding `CCn1cc(-c2ccc(Cl)cc2)cc1C(=O)NC(C)c1ccccn1` (centres undefined), the RP-LC retention time was determined as 843 s.

In the case of `Cc1ccc(CNC(=O)c2cc3n(n2)CCCN(Cc2cccc(F)c2)C3=O)o1`, the RP-LC retention time is 853 s.

As to `Cc1cc(C)n(-c2ccc(=O)n(CCNC(=O)CCn3cnc4ccccc4c3=O)n2)n1`, the RP-LC retention time is 605 s.

Regarding `CCCCN(C)C(=O)CCC(=O)Nc1ccc2nc(N3CCN(C)CC3)cc(C)c2c1`, the RP-LC retention time worked out at 546 s.

For the compound `Cc1ccc(S(=O)(=O)N2CCc3nc[nH]c3C2)cc1`, the RP-LC retention time turned out to be 591 s.

With `O=C(Nc1cccc(Br)c1)C1CCN(c2nccnc2Sc2ccccc2)CC1`, the RP-LC retention time came to 1190 s.

Turning to `Cc1cccc(Sc2nccnc2N2CCCC(C(=O)NCc3ccc(C)o3)C2)c1` (centres undefined), the RP-LC retention time came out at 1060 s.

Compound `Cc1oc(-c2[nH]ncc2C(=O)N(C)C)cc1S(=O)(=O)Nc1cccc(C(F)(F)F)c1` displayed an RP-LC retention time of 763 s.

Compound `CCOCCCNC(=O)c1cc2n(n1)CCCN(Cc1ccccc1)C2=O` registered an RP-LC retention time of 724 s.

Compound `CN1C(=O)COc2ccc(-c3csc(NC(=O)Cc4ccccc4)n3)cc21` displayed an RP-LC retention time of 898 s.

Compound `Cn1ccc2cc(S(=O)(=O)N3CCCC(C(=O)NCCN4CCCCC4)C3)ccc21` (centres undefined) registered an RP-LC retention time of 654 s.

Consider `COc1cc(OC)c2c(C)cc(=O)oc2c1`, for which the RP-LC retention time was found to be 809 s.

`O=C1c2cccc3c2[C@@H](CCC3)CN1[C@@H]1CN2CCC1CC2` returned an RP-LC retention time of 664 s.

Compound `COc1ccc(C(=S)N2CCN(c3cccc(Cl)c3)CC2)cc1` registered an RP-LC retention time of 1210 s.

As to `COc1ccc(S(=O)(=O)NCc2cccnc2-c2cccc(C)c2)cc1`, the RP-LC retention time was 695 s.

For the compound `COc1ccc(NC(=O)C2CCN(S(=O)(=O)c3ccc4c(c3)CCCN4C(C)=O)CC2)cc1`, the RP-LC retention time was 780 s.

Compound `O=C(NCCC1=CCCCC1)C1CCCCN1S(=O)(=O)c1ccc(Cl)cc1` (centres undefined) returned an RP-LC retention time of 1200 s.

The compound `O=C(NCCc1csc(-c2ccc(F)cc2)n1)c1ccc2nsnc2c1` had an RP-LC retention time of 876 s.

For the compound `COc1ccc(NC(=O)NC(C(=O)N2CCc3ccccc32)C(C)C)c(OC)c1` (centres undefined), the RP-LC retention time turned out to be 934 s.

In turn, `CCn1cc(-c2nc(C)c(C(=O)Nc3cccc(OC)c3)s2)c2cccnc21` had an RP-LC retention time of 983 s.

`CCc1ccc(C(=O)N2CCCN(C3=NS(=O)(=O)C(c4ccccc4)=C3C)CC2)cc1` yielded an RP-LC retention time of 894 s.

`CCOC(=O)Cn1cccc1-c1nc(-c2ccncc2)no1`: the RP-LC retention time turned out to be 844 s.

`c1cn(-c2cc(N3CCCC3)ncn2)cn1`: the RP-LC retention time amounted to 556 s.

For the compound `CCS(=O)(=O)N1CC(=O)N(Cc2cccc(C)c2)C(C)(C(=O)NCc2ccc(F)cc2)C1` (centres undefined), the RP-LC retention time was found to be 882 s.

`O=C(CSc1nccn1-c1cccc(C(F)(F)F)c1)Nc1nccs1` showed an RP-LC retention time of 728 s.

In turn, `COc1cc(Nc2c(C(=O)N3CCCC3)cnc3nc(C)ccc23)cc(OC)c1OC` showed an RP-LC retention time of 592 s.

`O=C(NCCN1CCOCC1)c1ccc(-c2ccc(N3CCCCC3)nc2)cc1` displayed an RP-LC retention time of 557 s.

In the case of `O=C(NC1CCCC1)NC1CCN(C(=O)C2CC2)C1` (centres undefined), the RP-LC retention time was found to be 631 s.

`CCc1cccc(N2C(=O)CN(S(=O)(=O)CC)CC2(C)C(=O)NCc2ccccc2)c1` (centres undefined) displayed an RP-LC retention time of 856 s.

Turning to `CCCN1CCN(C(=O)C2=Cc3cc(-c4ccccc4)ccc3OC2)CC1`, the RP-LC retention time was 714 s.

`O=C(CSc1ncnc2c1nnn2Cc1ccc(F)cc1)N1CCCC1` gave an RP-LC retention time of 764 s.

As to `CC1CCCCN1C(=O)c1ccc2c(c1)Sc1ncccc1C(=O)N2C(C)C` (centres undefined), the RP-LC retention time was found to be 810 s.

`COc1ccc(-c2nnc(COc3ccc(NC(=O)c4ccc(C)s4)cc3)o2)cc1` had an RP-LC retention time of 921 s.

In turn, `CC(C)C(=O)N1CCc2cc(C(=O)N(C)C)ccc21` had an RP-LC retention time of 678 s.

`CCN(CC)c1ccc(NC(=O)C2CC(=O)N(c3cccc(NC(C)=O)c3)C2)c(C)c1` (centres undefined) registered an RP-LC retention time of 573 s.

As for `CN1CCN(CCCNC(=O)c2ccc3c(c2)N(C)C(=O)C2CCCCN32)CC1` (centres undefined), the RP-LC retention time turned out to be 575 s.

As to `Cn1c(=O)c(N2CCC(NC(=O)NCc3cccc(F)c3)CC2)nc2ccccc21`, the RP-LC retention time came to 816 s.

On to `Cc1ccc(CNC(=O)C2CCCN(S(=O)(=O)c3c[nH]c(C(=O)N4CCCC4)c3)C2)o1` (centres undefined), for which the RP-LC retention time is 729 s.

The compound `Cc1ccc(-n2nc(N3CCCN(S(=O)(=O)c4ccc(Cl)cc4)CC3)ccc2=O)cc1` registered an RP-LC retention time of 935 s.

Turning to `Cc1nc(N2CCN(c3ccccn3)CC2)nc2c1C(=O)CC(C)C2` (centres undefined), the RP-LC retention time was 652 s.

As for `CC(C)c1cc(C(=O)Nc2ccc(F)cc2F)nc2ccnn12`, the RP-LC retention time was found to be 1160 s.

`Cc1cc(C(=O)NC2CC2)c2cc(Br)ccc2n1` gave an RP-LC retention time of 664 s.

`Oc1cccc(-c2nc3cnccn3c2Nc2ccc(F)cc2)c1`: the RP-LC retention time came to 728 s.

For the compound `Cc1cc(NC2CCCCC2)nc(-n2nc(C)cc2C)n1`, the RP-LC retention time is 850 s.

Regarding `Cc1ccc(NC(=O)C2CCN(S(=O)(=O)c3cc(C(=O)N(C)C)cs3)CC2)cc1Cl`, the RP-LC retention time was found to be 912 s.

`COc1cc(C(=O)NC2CCN(c3cc(-c4ccccc4)[nH]n3)C2)cc(OC)c1OC` (centres undefined) gave an RP-LC retention time of 688 s.

As to `COc1c(C(=O)N2CCN(c3ccccc3)CC2)sc2cccc(F)c12`, the RP-LC retention time is 1090 s.

Turning to `C=Cc1ccc(Cn2ccn(-c3cccc(Cl)c3C)c(=O)c2=O)cc1`, the RP-LC retention time is 843 s.

`Cc1c(Cl)cccc1NC(=O)N1CCCC(C)(C(=O)NCc2ccccc2)C1` (centres undefined) yielded an RP-LC retention time of 1010 s.

Turning to `CN(C)C(=O)c1n[nH]c2c1CN(S(=O)(=O)c1ccccc1)CC2`, the RP-LC retention time is 660 s.

Regarding `Cn1cc(S(=O)(=O)N2CCC(C(=O)Nc3cccc(F)c3)CC2)cc1C(=O)N1CCCC1`, the RP-LC retention time is 772 s.

These data come from the METLIN SMRT retention time set (Domingo-Almenara et al. 2019).
